How the values were obtained:
KIAA1983 mRNA expression = assay: Change in KIAA1983 expression after treatment with methyl transferase inhibitor, quantitative RT-PCR; type: cell-based, human; settings: 1 μM for 72 hours, relative to GAPDH
Protocol: (§1) FIG. 5 is a graphical representation showing the change In expression of KIAA1983 in epithelial ovarian cancer cell lines following treatment with the methyl transferase inhibitor 5-AZA (1 μM) for 72 hours, as determined by quantitative RT-PCR. The non-transformed cell line HOSE 6-3 was used as a control. Ovarian cancer cell lines were IGROV1, TOV21 G, OV90 and CAOV3. The relative amount of KIAA1983 mRNA in each cell line before (filled) and after (unfilled) treatment with methylation inhibitor was determined by comparison to a standard housekeeping gene (GAPDH), and is expressed as a fold change in expression level following treatment.
Total RNA was isolated from the normal and tumour cell lines, reverse transcribed into cDNA and used as template in a quantitative PCR using a LightCycler system (Roche Diagnostics). The relative amount of each gene product was determined by comparison to a standard housekeeping gene (GAPDH).
Thus, KIAA1983 is susceptible to gene silencing by hypermethylation thereby contributing to its reduced expression in epithelial ovarian cancers.

MGC1136 expression = assay: Change in MGC1136 expression after treatment with methylation inhibitor, quantitative RT-PCR; type: cell-based, human; settings: 1 μM for 72 hours, adjusted for GAPDH
Protocol: as §1
FIG. 9 is a graphical representation showing MGC1136 expression in IGROV, TOV21G and CaOV3 cells, in the presence (+) or absence (−) of the methylation inhibitor 5AZA (1 μM 5AZA for 72 hours). MGC1136 expression is represented as a relative fold change in expression in each cell line following treatment with 5AZA, and adjusted for the level of the housekeeping gene GAPDH. Experiments were performed as described in the legend for FIG. 5.
However, expression of MGC1136 is not increased in TOV21 G cells (clear cell ovarian cancer) following treatment with the methylation inhibitor 5AZA. Thus, loss of MGC1136 expression by methylation of the MGC1136 promoter may be restricted to particular histological phenotypes of epithelial ovarian cancer.

## Nc1ncn([C@H]2C[C@H](O)[C@@H](CO)O2)c(=O)n1 [5-AZA, 5-aza-2′deoxycytodine]
KIAA1983 mRNA expression; epithelial ovarian cancer cell lines having reduced expression of KIAA1983 (IGROV1, TOV21G, OV90, CAOV3)
  expression of KIAA1983 mRNA following treatment: removes the block in expression of KIAA1983 mRNA
KIAA1983 mRNA expression; normal ovarian cells (non-transformed HOSE 6-3 control)
  expression of KIAA1983 following treatment: note modulated
MGC1136 expression; CaOV3 cell line (serous epithelial ovarian cancer)
  expression of MGC1136 following treatment: marked increase in expression of MGC1136
MGC1136 expression; IGROV cell line (serous epithelial ovarian cancer)
  expression of MGC1136 following treatment: marked increase in expression of MGC1136
MGC1136 expression; TOV21 G cells (clear cell ovarian cancer)
  expression of MGC1136 following treatment: not increased
